Data: patent US20250313548A1 (Actio Biosciences, Inc., priority 2023, published 2025)

Each molecule was assayed against human, KCNT1 (Homo sapiens (Human), UniProt Q5JUK3) (assay: FLIPR Tl/K Flux Assay). Details: HEK293 cells stably expressing human KCNT1; Tl+ flux stimulated with EC80 of agonist Loxapine.
Type: cell-based
Procedure, shortened: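 Inhibition values come from a Hill-equation fit of % inhibition versus log concentration, using normalized fluorescence (Fmax/Fmin) over a 160 s read. The read followed stimulation with Tl+ plus EC80 agonist loxapine after 30 min compound pre-incubation at 25 °C. Cells were KCNT1-expressing HEK293, dye-loaded 1 h in pH 7.4 HEPES/HBSS with 5 mM probenecid.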

Sequence of human, KCNT1 (Q5JUK3 whole entry): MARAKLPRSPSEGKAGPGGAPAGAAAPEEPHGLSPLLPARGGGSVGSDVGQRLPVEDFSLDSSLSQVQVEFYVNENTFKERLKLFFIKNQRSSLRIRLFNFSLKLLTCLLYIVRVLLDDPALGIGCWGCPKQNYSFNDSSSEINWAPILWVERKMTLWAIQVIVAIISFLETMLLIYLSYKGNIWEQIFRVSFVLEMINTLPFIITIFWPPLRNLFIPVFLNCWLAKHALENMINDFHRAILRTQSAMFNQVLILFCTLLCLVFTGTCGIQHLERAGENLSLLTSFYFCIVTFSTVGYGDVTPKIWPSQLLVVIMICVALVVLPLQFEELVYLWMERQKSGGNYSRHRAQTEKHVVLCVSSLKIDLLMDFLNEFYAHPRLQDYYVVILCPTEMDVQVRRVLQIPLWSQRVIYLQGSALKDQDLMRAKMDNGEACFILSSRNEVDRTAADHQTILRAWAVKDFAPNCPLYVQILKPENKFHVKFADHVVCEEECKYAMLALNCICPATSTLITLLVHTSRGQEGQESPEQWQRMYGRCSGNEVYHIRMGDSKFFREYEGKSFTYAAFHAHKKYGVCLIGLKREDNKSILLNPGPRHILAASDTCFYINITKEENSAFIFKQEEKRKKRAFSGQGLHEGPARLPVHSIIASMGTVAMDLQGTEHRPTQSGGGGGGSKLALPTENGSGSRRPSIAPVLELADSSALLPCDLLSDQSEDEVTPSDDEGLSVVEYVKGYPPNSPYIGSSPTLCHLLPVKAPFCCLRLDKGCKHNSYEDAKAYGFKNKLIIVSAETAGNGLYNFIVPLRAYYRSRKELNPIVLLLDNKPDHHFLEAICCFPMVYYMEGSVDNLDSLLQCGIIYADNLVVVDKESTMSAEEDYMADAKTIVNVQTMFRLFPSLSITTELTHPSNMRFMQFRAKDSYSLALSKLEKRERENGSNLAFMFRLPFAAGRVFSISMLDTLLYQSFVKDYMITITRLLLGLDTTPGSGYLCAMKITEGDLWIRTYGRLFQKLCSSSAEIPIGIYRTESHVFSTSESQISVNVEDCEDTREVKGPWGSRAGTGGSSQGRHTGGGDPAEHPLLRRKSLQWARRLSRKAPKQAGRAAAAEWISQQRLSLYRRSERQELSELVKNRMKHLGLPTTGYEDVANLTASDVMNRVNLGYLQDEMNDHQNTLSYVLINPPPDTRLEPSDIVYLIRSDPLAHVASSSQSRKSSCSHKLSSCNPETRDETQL

IC50	Compound
< 0.25 µM	COc1cc(C(=O)N[C@H]2CCCn3nc(-c4ccnc(C(F)(F)F)c4)cc32)ccn1 [Compound I-330a, (S)-2-Methoxy-N-(2-(2-(trifluoromethyl)pyridin-4-yl)-4,5,6,7-tetrahydropyrazolo[1,5-a]pyridin-4-yl)isonicotinamide]
< 0.25 µM	COc1cc(C(=O)N[C@H]2CCn3nc(-c4ccnc(C(F)(F)F)c4)cc32)ccn1 [Compound I-331a, (S)-2-Methoxy-N-(2-(2-(trifluoromethyl)pyridin-4-yl)-5,6-dihydro-4H-pyrrolo[1,2-b]pyrazol-4-yl)isonicotinamide]
< 0.25 µM	COc1cc(C(=O)N[C@H]2CCc3nn(-c4ccnc(C(F)(F)F)c4)cc32)ccn1 [Compound I-332a, (S)-2-Methoxy-N-(2-(2-(trifluoromethyl)pyridin-4-yl)-2,4,5,6-tetrahydrocyclopenta[c]pyrazol-4-yl)isonicotinamide]
< 0.25 µM	N#Cc1cc(C(=O)N[C@H]2CCCn3nc(-c4ccnc(C(F)(F)F)c4)cc32)cc(C2CC2)c1 [Compound I-333a, (S)-3-Cyano-5-cyclopropyl-N-(2-(2-(trifluoromethyl)pyridin-4-yl)-4,5,6,7-tetrahydropyrazolo[1,5-a]pyridin-4-yl)benzamide]
< 0.25 µM	Cc1cc(C#N)cc(C(=O)N[C@H]2CCn3nc(-c4ccnc(C(F)(F)F)c4)cc32)c1 [Compound I-334a, (S)-3-Cyano-5-methyl-N-(2-(2-(trifluoromethyl)pyridin-4-yl)-5,6-dihydro-4H-pyrrolo[1,2-b]pyrazol-4-yl)benzamide]
< 0.25 µM	N#Cc1cccc(C(=O)N[C@H]2CCCCc3nn(-c4ccnc(C5CC5)c4)cc32)c1 [Compound I-335a, (S)-3-Cyano-N-(2-(2-cyclopropylpyridin-4-yl)-2,4,5,6,7,8-hexahydrocyclohepta[c]pyrazol-4-yl)benzamide]
0.5 to 1 µM	COc1cc(-n2cc3c(n2)CC[C@@H]3NC(=O)c2cc(C(F)(F)F)nn2C)cc(C)n1 [Compound I-336a, (S)-N-(2-(2-Methoxy-6-methylpyridin-4-yl)-2,4,5,6-tetrahydrocyclopenta[c]pyrazol-4-yl)-1-methyl-3-(trifluoromethyl)-1H-pyrazole-5-carboxamide]
< 0.25 µM	CCOc1cc(-n2cc3c(n2)CC[C@@H]3NC(=O)c2cc(F)cc(F)c2)ccn1 [Compound I-337a, (S)-N-(2-(2-Ethoxypyridin-4-yl)-2,4,5,6-tetrahydrocyclopenta[c]pyrazol-4-yl)-3,5-difluorobenzamide]
< 0.25 µM	O=C(N[C@H]1CCCn2nc(-c3ccnc(C(F)(F)F)c3)cc21)c1cn(C(F)(F)F)nc1C(F)(F)F [Compound I-338a, (S)-1,3-bis(trifluoromethyl)-N-(2-(2-(trifluoromethyl)pyridin-4-yl)-4,5,6,7-tetrahydropyrazolo[1,5-a]pyridin-4-yl)-1H-pyrazole-4-carboxamide]
> 1 µM	O=C(N[C@H]1CCc2cnc(-c3ccnc(C(F)(F)F)c3)cc21)c1cc2cccnn2c1 [Compound I-340a]
< 0.25 µM	COc1cc(C#N)cc(C(=O)N[C@H]2CCCn3nc(-c4ccnc(C(F)(F)F)c4)cc32)c1 [Compound I-341a, (S)-3-Cyano-5-methoxy-N-(2-(2-(trifluoromethyl)pyridin-4-yl)-4,5,6,7-tetrahydropyrazolo[1,5-a]pyridin-4-yl)benzamide]
< 0.25 µM	N#Cc1cccc(C(=O)N[C@H]2CCn3nc(-c4ccnc(C(F)(F)F)c4)cc32)c1 [Compound I-342a, (S)-3-Cyano-N-(2-(2-(trifluoromethyl)pyridin-4-yl)-5,6-dihydro-4H-pyrrolo[1,2-b]pyrazol-4-yl)benzamide]
< 0.25 µM	N#Cc1cc(C(=O)N[C@H]2CCCn3nc(-c4ccnc(C(F)(F)F)c4)cc32)ccc1F [Compound I-343a, (S)-3-Cyano-4-fluoro-N-(2-(2-(trifluoromethyl)pyridin-4-yl)-4,5,6,7-tetrahydropyrazolo[1,5-a]pyridin-4-yl)benzamide]
> 1 µM	COc1cc(-c2cc3n(n2)CCC[C@@H]3NC(=O)c2cc(C(F)(F)F)nn2C)cc(OC)n1 [Compound I-344a]
